For test [1], the target named is alternative pathway of complement activation (Homo sapiens, UniProt P01024). The experiment in a line: Hemolytic assay, alternative pathway: lysis of rabbit erythrocytes in normal human serum with MgEGTA. In kind it is cell-based. As to the method:
Inhibition of the alternative pathway was measured by using rabbit erythrocytes in the presence of MgEGTA (FIG. 3A); inhibition of lysis of antibody-coated sheep erythrocytes was used as an indicator of inhibition of the classical pathway (FIG. 3B).
Inhibition of classical and alternative pathway activity by the peptides was measured. […] The reaction mixture was incubated at 37° C. for 1 hour and centrifuged. […] The effect of peptides on the alternative pathway was determined by measuring the lysis of rabbit erythrocytes (Er) in NHS. Various concentrations of peptide were mixed with 5 μl of NHS, 5 μl of MgEGTA and 10 μl of Er (1×10^9 /ml) and brought to a final volume of 100 μl in GVB. The reaction mixture was incubated at 37° C. for 20 minutes and stopped by adding 200 μl of GVBE. […] The percentage of lysis was normalized by considering 100% lysis to be equal to the lysis occurring in the absence of the peptide.

The next test deals with complement. The experiment in a line: Complement-mediated hemolytic assay (pathway not stated). In kind it is cell-based. As to the method:
Inhibition of classical and alternative pathway activity by the peptides was measured. To determine the effect of peptides on the classical pathway, various concentrations of peptide were mixed with 11 μl of normal human serum (NHS, diluted 1:10 in GVB^++) and 5 μl of sheep erythrocytes coated with antibodies (EA) (1×10^9 /ml) and GVB^++ was added to give a total volume of 250 μl. The reaction mixture was incubated at 37° C. for 1 hour and centrifuged. The percentage of lysis was determined by measuring the optical density of the supernatant at 414 nm. The effect of peptides on the alternative pathway was determined by measuring the lysis of rabbit erythrocytes (Er) in NHS. Various concentrations of peptide were mixed with 5 μl of NHS, 5 μl of MgEGTA and 10 μl of Er (1×10^9 /ml) and brought to a final volume of 100 μl in GVB. The reaction mixture was incubated at 37° C. for 20 minutes and stopped by adding 200 μl of GVBE. After centrifugation, hemolysis was determined at 414 nm. The percentage of lysis was normalized by considering 100% lysis to be equal to the lysis occurring in the absence of the peptide.

Where [2] appears, read: read-out: ALTERNATIVE PATHWAY IC50.

Where two headings read alike, the source gives them in different places. Where a SMILES comes first, the peptide text is derived from it. Bridges are numbered along the chain shown (N, C = ends). The star is where a group is joined. Cam = NC(=O)C*

Chain of alternative pathway of complement activation (P01024 23-1663): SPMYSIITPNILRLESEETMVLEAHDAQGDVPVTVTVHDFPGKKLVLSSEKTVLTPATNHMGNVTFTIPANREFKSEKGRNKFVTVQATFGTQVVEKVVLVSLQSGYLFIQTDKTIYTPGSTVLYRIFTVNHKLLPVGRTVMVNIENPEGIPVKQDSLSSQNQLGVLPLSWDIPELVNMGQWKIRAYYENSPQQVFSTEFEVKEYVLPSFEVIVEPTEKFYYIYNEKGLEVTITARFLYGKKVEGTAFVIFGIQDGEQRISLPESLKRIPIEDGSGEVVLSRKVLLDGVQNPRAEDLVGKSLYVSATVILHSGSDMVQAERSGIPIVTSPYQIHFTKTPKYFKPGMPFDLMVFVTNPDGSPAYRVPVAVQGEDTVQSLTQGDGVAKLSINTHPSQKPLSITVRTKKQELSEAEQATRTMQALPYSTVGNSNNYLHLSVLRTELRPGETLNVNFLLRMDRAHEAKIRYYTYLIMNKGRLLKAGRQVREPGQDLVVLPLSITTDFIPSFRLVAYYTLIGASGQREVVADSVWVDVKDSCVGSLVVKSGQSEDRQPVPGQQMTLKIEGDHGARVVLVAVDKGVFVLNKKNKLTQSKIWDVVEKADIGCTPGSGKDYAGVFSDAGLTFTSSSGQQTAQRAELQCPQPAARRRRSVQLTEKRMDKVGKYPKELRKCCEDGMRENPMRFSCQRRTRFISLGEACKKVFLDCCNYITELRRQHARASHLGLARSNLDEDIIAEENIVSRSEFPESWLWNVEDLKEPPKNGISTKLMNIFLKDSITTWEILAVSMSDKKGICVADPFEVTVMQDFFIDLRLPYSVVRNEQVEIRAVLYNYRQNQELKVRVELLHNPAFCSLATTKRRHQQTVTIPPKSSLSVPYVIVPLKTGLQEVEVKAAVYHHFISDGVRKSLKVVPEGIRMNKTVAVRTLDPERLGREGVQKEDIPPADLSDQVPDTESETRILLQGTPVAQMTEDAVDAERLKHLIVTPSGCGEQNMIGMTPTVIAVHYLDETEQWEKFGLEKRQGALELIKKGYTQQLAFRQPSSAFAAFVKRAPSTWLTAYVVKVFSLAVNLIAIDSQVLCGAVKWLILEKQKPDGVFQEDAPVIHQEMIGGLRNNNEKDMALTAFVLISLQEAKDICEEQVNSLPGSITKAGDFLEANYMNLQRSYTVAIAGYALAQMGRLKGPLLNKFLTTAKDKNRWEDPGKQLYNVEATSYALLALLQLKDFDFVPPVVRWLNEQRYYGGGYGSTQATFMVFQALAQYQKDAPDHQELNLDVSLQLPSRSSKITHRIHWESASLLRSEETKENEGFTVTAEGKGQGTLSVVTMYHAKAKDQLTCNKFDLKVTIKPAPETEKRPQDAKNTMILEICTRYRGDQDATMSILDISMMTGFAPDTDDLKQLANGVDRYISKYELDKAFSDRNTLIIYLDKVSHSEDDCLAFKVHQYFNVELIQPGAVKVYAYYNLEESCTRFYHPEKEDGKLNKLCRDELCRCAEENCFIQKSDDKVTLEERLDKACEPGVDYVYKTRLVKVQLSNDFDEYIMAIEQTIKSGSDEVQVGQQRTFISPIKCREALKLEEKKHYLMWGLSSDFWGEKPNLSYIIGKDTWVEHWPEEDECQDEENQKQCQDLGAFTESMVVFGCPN

Regarding `C[C@@H](O)[C@H](NC(=O)[C@@H]1CSSC[C@H](N)C(=O)N[C@@H](Cc2c[nH]cn2)C(=O)N[C@@H](Cc2c[nH]cn2)C(=O)N[C@@H](CCCNC(=N)N)C(=O)N1)C(N)=O` [VII] (H-CHHRCT-NH2; disulfide 1-5), in test [1] (setting [2]), the IC50 was over 600 µM. As for `C[C@@H](O)[C@H](NC(=O)[C@@H]1CSSC[C@H](N)C(=O)N[C@@H](CCC(N)=O)C(=O)N[C@@H](CC(=O)O)C(=O)N[C@@H](Cc2c[nH]c3ccccc23)C(=O)NCC(=O)N[C@@H](Cc2c[nH]cn2)C(=O)N[C@@H](Cc2c[nH]cn2)C(=O)N[C@@H](CCCNC(=N)N)C(=O)N1)C(N)=O` [XI] (H-CQDWGHHRCT-NH2; disulfide 1-9), the IC50 in test [1] (setting [2]) is over 600 µM.

Consider `C[C@@H](O)[C@H](NC(=O)[C@@H]1CSSC[C@H](N)C(=O)N[C@@H](CC(=O)O)C(=O)N[C@@H](Cc2c[nH]c3ccccc23)C(=O)NCC(=O)N[C@@H](Cc2c[nH]cn2)C(=O)N[C@@H](Cc2c[nH]cn2)C(=O)N[C@@H](CCCNC(=N)N)C(=O)N1)C(N)=O` [X] (H-CDWGHHRCT-NH2; disulfide 1-8), for which the IC50 in test [1] (setting [2]) is over 600 µM. In the case of `CC(C)[C@@H]1NC(=O)[C@H](C(C)C)NC(=O)[C@@H](N)CSSC[C@@H](C(N)=O)NC(=O)[C@H](Cc2c[nH]cn2)NC(=O)CNC(=O)[C@H](Cc2c[nH]c3ccccc23)NC(=O)[C@H](CC(=O)O)NC(=O)[C@H](CCC(N)=O)NC1=O` [XIV] (H-CVVQDWGHC-NH2; disulfide 1-9), the IC50 in test [1] (setting [2]) is over 600 µM. On to `CC(C)[C@@H]1NC(=O)[C@@H](N)CSSC[C@@H](C(N)=O)NC(=O)[C@H](CCCNC(=N)N)NC(=O)[C@H](Cc2c[nH]cn2)NC(=O)[C@H](Cc2c[nH]cn2)NC(=O)CNC(=O)[C@H](Cc2c[nH]c3ccccc23)NC(=O)[C@H](CC(=O)O)NC(=O)[C@H](CCC(N)=O)NC(=O)[C@H](C)NC1=O` [XVI] (H-CVAQDWGHHRC-NH2; disulfide 1-11), for which, in test [1] (read-out: A[…] IC50), the IC50 turned out to be 67 µM.

Take `CC(C)[C@@H]1NC(=O)[C@H](C(C)C)NC(=O)[C@@H](N)CSSC[C@@H](C(N)=O)NC(=O)[C@H](CCCNC(=N)N)NC(=O)[C@H](Cc2c[nH]cn2)NC(=O)[C@H](Cc2c[nH]cn2)NC(=O)CNC(=O)[C@H](Cc2c[nH]c3ccccc23)NC(=O)[C@H](C)NC(=O)[C@H](CCC(N)=O)NC1=O` [XVIII] (H-CVVQAWGHHRC-NH2; disulfide 1-11): in test [1] (read-out: A[…] IC50), the IC50 came out at 257 µM.

As to `C[C@@H](O)[C@H](NC(=O)[C@@H]1CSSC[C@H](N)C(=O)N[C@@H](Cc2c[nH]c3ccccc23)C(=O)NCC(=O)N[C@@H](Cc2c[nH]cn2)C(=O)N[C@@H](Cc2c[nH]cn2)C(=O)N[C@@H](CCCNC(=N)N)C(=O)N1)C(N)=O` [IX] (H-CWGHHRCT-NH2; disulfide 1-7), in test [1] (setting [2]), the IC50 is over 600 µM.

In the case of `CC(C)[C@@H]1NC(=O)[C@H](C(C)C)NC(=O)[C@@H](N)CSSC[C@@H](C(N)=O)NC(=O)[C@H](CCCNC(=N)N)NC(=O)[C@H](Cc2c[nH]cn2)NC(=O)[C@H](Cc2c[nH]cn2)NC(=O)CNC(=O)[C@H](Cc2c[nH]c3ccccc23)NC(=O)[C@H](CC(=O)O)NC(=O)[C@H](C)NC1=O` [XVII] (H-CVVADWGHHRC-NH2; disulfide 1-11), the IC50 in test [1] (read-out: A[…] IC50) is 910 µM. Turning to “ICVVQDWGHHRCTAGHYY [SEQ ID NO: 23, peptide of the invention containing tyrosine residues at its C-terminus]”, in the test with complement, the “activity in hemolytic assay” value is on record as “equal activity to Peptide IV”.

Regarding `CC(C)[C@@H]1NC(=O)[C@H](C(C)C)NC(=O)[C@@H](N)CSSC[C@@H](C(N)=O)NC(=O)[C@H](CCCNC(=N)N)NC(=O)[C@H](C)NC(=O)[C@H](Cc2c[nH]cn2)NC(=O)CNC(=O)[C@H](Cc2c[nH]c3ccccc23)NC(=O)[C@H](CC(=O)O)NC(=O)[C@H](CCC(N)=O)NC1=O` [XXII] (H-CVVQDWGHARC-NH2; disulfide 1-11), the half-inhibitory concentration (IC50) in test [1] (read-out: A[…] IC50) was 74 µM. On to `CC(C)[C@@H]1NC(=O)[C@H](C(C)C)NC(=O)[C@@H](N)CSSC[C@@H](C(N)=O)NC(=O)[C@H](Cc2c[nH]c3ccccc23)NC(=O)[C@H](CC(=O)O)NC(=O)[C@H](CCC(N)=O)NC1=O` [XIII] (H-CVVQDWC-NH2; disulfide 1-7), for which the IC50 in test [1] (setting [2]) is over 600 µM.

As to `C[C@@H](O)[C@H](NC(=O)[C@@H]1CSSC[C@H](N)C(=O)NCC(=O)N[C@@H](Cc2c[nH]cn2)C(=O)N[C@@H](Cc2c[nH]cn2)C(=O)N[C@@H](CCCNC(=N)N)C(=O)N1)C(N)=O` [VIII] (H-CGHHRCT-NH2; disulfide 1-6), the IC50 in test [1] (setting [2]) was over 600 µM.

Regarding `CC(C)[C@@H]1NC(=O)[C@H](C(C)C)NC(=O)[C@@H](N)CSSC[C@@H](C(N)=O)NC(=O)[C@H](C)NC(=O)[C@H](Cc2c[nH]cn2)NC(=O)[C@H](Cc2c[nH]cn2)NC(=O)CNC(=O)[C@H](Cc2c[nH]c3ccccc23)NC(=O)[C@H](CC(=O)O)NC(=O)[C@H](CCC(N)=O)NC1=O` [XXIII] (H-CVVQDWGHHAC-NH2; disulfide 1-11), the IC50 in test [1] (setting [2]) stood at 70 µM. For `CC[C@H](C)[C@H](N)C(=O)N[C@@H](CSCC(N)=O)C(=O)N[C@H](C(=O)N[C@H](C(=O)N[C@@H](CCC(N)=O)C(=O)N[C@@H](CC(=O)O)C(=O)N[C@@H](Cc1c[nH]c2ccccc12)C(=O)NCC(=O)N[C@@H](Cc1c[nH]cn1)C(=O)N[C@@H](Cc1c[nH]cn1)C(=O)N[C@@H](CCCNC(=N)N)C(=O)N[C@@H](CSCC(N)=O)C(=O)N[C@H](C(N)=O)[C@@H](C)O)C(C)C)C(C)C` [Peptide V], in test [1] (setting [2]), the IC50 is over 300 µM.

Regarding `CC(C)[C@@H]1NC(=O)[C@H](C)NC(=O)[C@@H](N)CSSC[C@@H](C(N)=O)NC(=O)[C@H](CCCNC(=N)N)NC(=O)[C@H](Cc2c[nH]cn2)NC(=O)[C@H](Cc2c[nH]cn2)NC(=O)CNC(=O)[C@H](Cc2c[nH]c3ccccc23)NC(=O)[C@H](CC(=O)O)NC(=O)[C@H](CCC(N)=O)NC1=O` [XV] (H-CAVQDWGHHRC-NH2; disulfide 1-11), the IC50 in test [1] (read-out: A[…] IC50) was 1200 µM. On to `CC(C)[C@@H]1NC(=O)[C@@H](N)CSSC[C@@H](C(=O)N[C@H](C(N)=O)[C@@H](C)O)NC(=O)[C@H](CCCNC(=N)N)NC(=O)[C@H](Cc2c[nH]cn2)NC(=O)[C@H](Cc2c[nH]cn2)NC(=O)CNC(=O)[C@H](Cc2c[nH]c3ccccc23)NC(=O)[C@H](CC(=O)O)NC(=O)[C@H](CCC(N)=O)NC1=O` [XII] (H-CVQDWGHHRCT-NH2; disulfide 1-10), for which the IC50 in test [1] (setting [2]) was over 600 µM. For `CC(C)[C@@H]1NC(=O)[C@H](C(C)C)NC(=O)[C@@H](N)CSSC[C@@H](C(N)=O)NC(=O)[C@H](CCCNC(=N)N)NC(=O)[C@H](Cc2c[nH]cn2)NC(=O)[C@H](C)NC(=O)CNC(=O)[C@H](Cc2c[nH]c3ccccc23)NC(=O)[C@H](CC(=O)O)NC(=O)[C@H](CCC(N)=O)NC1=O` [XXI] (H-CVVQDWGAHRC-NH2; disulfide 1-11), the IC50 in test [1] (read-out: A[…] IC50) amounted to 15 µM. As for `CC[C@H](C)[C@H](N)C(=O)N[C@@H](CSCC(N)=O)C(=O)N[C@H](C(=O)N[C@H](C(=O)N[C@@H](CCC(N)=O)C(=O)N[C@@H](CC(=O)O)C(=O)N[C@@H](Cc1c[nH]c2ccccc12)C(=O)NCC(=O)N[C@@H](Cc1c[nH]cn1)C(=O)N[C@@H](Cc1c[nH]cn1)C(=O)N[C@@H](CCCNC(=N)N)C(=O)N[C@@H](CSCC(N)=O)C(=O)N[C@H](C(=O)N[C@@H](C)C(=O)NCC(=O)N[C@@H](Cc1c[nH]cn1)C(=O)N[C@@H](CCSC)C(=O)N[C@@H](C)C(=O)N[C@@H](CC(N)=O)C(=O)N[C@@H](CC(C)C)C(=O)N[C@H](C(=O)N[C@@H](CO)C(=O)N[C@@H](Cc1c[nH]cn1)C(=O)N[C@@H](C)C(=O)N[C@@H](CO)C(=O)N[C@@H](C)C(=O)N[C@H](C(N)=O)[C@@H](C)CC)[C@@H](C)O)[C@@H](C)O)C(C)C)C(C)C` [II] (H-IC(Cam)VVQDWGHHRC(Cam)TAGHMANLTSHASAI-NH2), the IC50 in test [1] (setting [2]) is over 300 µM.

Turning to `CC(C)[C@@H]1NC(=O)[C@H](C(C)C)NC(=O)[C@@H](N)CSSC[C@@H](C(N)=O)NC(=O)[C@H](CCCNC(=N)N)NC(=O)[C@H](Cc2c[nH]cn2)NC(=O)[C@H](Cc2c[nH]cn2)NC(=O)CNC(=O)[C@H](C)NC(=O)[C@H](CC(=O)O)NC(=O)[C@H](CCC(N)=O)NC1=O` [XIX] (H-CVVQDAGHHRC-NH2; disulfide 1-11), in test [1] (setting [2]), the IC50 came out at 182 µM.

For the molecule `CC(C)[C@@H]1NC(=O)[C@H](C(C)C)NC(=O)[C@@H](N)CSSC[C@@H](C(N)=O)NC(=O)[C@H](CCCNC(=N)N)NC(=O)[C@H](Cc2c[nH]cn2)NC(=O)[C@H](Cc2c[nH]cn2)NC(=O)CNC(=O)[C@H](Cc2c[nH]c3ccccc23)NC(=O)[C@H](CC(=O)O)NC(=O)[C@H](CCC(N)=O)NC1=O` [VI] (H-CVVQDWGHHRC-NH2; disulfide 1-11), the IC50 in test [1] (read-out: A[…] IC50) came to 33 µM. Same read-out and setting: next, `CC(C)[C@@H]1NC(=O)[C@H](C(C)C)NC(=O)[C@@H](N)CSSC[C@@H](C(N)=O)NC(=O)[C@H](CCCNC(=N)N)NC(=O)[C@H](Cc2c[nH]cn2)NC(=O)[C@H](Cc2c[nH]cn2)NC(=O)[C@H](C)NC(=O)[C@H](Cc2c[nH]c3ccccc23)NC(=O)[C@H](CC(=O)O)NC(=O)[C@H](CCC(N)=O)NC1=O` [XX] (H-CVVQDWAHHRC-NH2; disulfide 1-11): over 1200 µM.

Values taken from patent US6319897A, “Peptides which inhibit complement activation” (priority 1999, dated 2001).
